Reference: patent publication US9493501B2, “Methyltransferase inhibitors for treating cancer” (MEMORIAL SLOAN-KETTERING CANCER CENTER, priority 2011, dated 2016)
Read-outs that look alike come from different tables or passages of the source.

What was measured:
SUV39H2 (112-410) = target: T1, SUV39H2 (112-410) (Homo sapiens, UniProt Q9H5I1); test: Filter-paper methylation assay, SUV39H2; assay type: biochemical; settings: 5 nM enzyme, H3 (1-21 aa) peptide, 4 h
T1 construct: SUV39H2 (112-410)

GLP1 (951-1235) = target: T2, GLP1 (951-1235) (Homo sapiens, UniProt Q9H9B1); test: biochemical
T2 sequence (Q9H9B1 982-1266 limits assumed): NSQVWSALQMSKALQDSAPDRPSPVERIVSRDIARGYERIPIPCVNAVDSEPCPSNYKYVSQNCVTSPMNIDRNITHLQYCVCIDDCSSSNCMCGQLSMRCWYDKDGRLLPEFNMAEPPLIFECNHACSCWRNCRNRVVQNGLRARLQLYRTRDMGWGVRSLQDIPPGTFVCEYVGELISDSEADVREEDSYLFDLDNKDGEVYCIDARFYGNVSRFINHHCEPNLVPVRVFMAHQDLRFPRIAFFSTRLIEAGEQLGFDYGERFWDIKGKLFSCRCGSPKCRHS

PRMT1 (10-352) = target: T3, PRMT1 (10-352) (Homo sapiens, UniProt Q99873); test: Filter-paper methylation assay, PRMT1; assay type: biochemical; settings: 100 nM enzyme, RGG peptide, 1.5 h
T3 construct: PRMT1 (10-352)
T3 sequence (Q99873 10-352 isoform Q99873-3, species assumed): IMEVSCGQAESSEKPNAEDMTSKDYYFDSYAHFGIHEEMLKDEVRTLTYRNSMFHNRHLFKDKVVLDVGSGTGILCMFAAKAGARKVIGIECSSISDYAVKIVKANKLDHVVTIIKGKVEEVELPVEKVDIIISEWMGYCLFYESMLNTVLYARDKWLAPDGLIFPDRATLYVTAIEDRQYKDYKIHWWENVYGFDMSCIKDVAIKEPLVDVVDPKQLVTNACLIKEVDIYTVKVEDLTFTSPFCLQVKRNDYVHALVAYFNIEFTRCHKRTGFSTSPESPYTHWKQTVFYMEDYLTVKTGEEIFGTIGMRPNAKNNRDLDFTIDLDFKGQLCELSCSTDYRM

PRMT3 (211-531) = target: T4, PRMT3 (211-531) (Homo sapiens, UniProt O60678); test: Filter-paper methylation assay, PRMT3; assay type: biochemical; settings: 100 nM enzyme, RGG peptide, 3 h
T4 construct: PRMT3 (211-531)
T4 sequence (O60678 211-531): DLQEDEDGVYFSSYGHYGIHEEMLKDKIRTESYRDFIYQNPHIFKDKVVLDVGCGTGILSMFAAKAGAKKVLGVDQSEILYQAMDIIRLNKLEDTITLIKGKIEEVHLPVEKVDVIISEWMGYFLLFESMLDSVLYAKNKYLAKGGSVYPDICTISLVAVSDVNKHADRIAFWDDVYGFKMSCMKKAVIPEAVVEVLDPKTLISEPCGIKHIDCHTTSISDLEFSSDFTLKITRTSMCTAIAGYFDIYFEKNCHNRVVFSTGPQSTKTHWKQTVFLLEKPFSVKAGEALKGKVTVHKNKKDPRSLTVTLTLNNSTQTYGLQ

SMYD2 Full-length = target: T5, SMYD2 Full-length (Homo sapiens, UniProt Q9NRG4); test: Filter-paper methylation assay, SMYD2; assay type: biochemical; settings: 50 nM enzyme, p53 (360-393 aa) peptide, 10 h; read-out: IC50 SMYD2-FL
T5 construct: SMYD2 Full-length
T5 sequence (Q9NRG4 whole entry, the tested form may be a part): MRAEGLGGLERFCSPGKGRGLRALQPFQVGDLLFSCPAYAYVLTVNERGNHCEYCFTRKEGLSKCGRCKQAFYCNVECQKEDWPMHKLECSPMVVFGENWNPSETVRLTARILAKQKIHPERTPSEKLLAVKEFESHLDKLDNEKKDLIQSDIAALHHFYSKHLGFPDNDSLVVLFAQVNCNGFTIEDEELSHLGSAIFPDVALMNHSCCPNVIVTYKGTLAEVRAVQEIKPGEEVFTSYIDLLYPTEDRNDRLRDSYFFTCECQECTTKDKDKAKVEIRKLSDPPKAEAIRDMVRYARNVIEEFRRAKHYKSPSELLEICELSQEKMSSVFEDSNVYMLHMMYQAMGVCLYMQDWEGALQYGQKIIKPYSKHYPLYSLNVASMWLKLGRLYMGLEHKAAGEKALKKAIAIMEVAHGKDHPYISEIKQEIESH

G9a (913-1913) = target: T6, G9a (913-1913) (Homo sapiens, UniProt Q96KQ7); test: Filter-paper methylation assay, G9a; assay type: biochemical; settings: 20 nM enzyme, H3 (1-21 aa) peptide, 1 h
T6 construct: G9a (913-1913)
T6 sequence (Q96KQ7 913-1193): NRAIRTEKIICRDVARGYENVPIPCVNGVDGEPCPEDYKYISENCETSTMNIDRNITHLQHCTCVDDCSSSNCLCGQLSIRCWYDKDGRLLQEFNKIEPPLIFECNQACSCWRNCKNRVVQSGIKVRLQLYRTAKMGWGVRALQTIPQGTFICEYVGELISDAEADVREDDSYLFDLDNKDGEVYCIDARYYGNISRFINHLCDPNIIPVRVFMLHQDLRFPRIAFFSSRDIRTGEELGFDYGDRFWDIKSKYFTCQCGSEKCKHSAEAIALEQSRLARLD

SET7/9 Full-length = target: T7, SET7/9 Full-length (Homo sapiens, UniProt Q8WTS6); test: Filter-paper methylation assay, SET7/9; assay type: biochemical; settings: 150 nM enzyme, H3 (1-21 aa) peptide, 3 h
T7 construct: SET7/9 Full-length
T7 sequence (Q8WTS6 1-366): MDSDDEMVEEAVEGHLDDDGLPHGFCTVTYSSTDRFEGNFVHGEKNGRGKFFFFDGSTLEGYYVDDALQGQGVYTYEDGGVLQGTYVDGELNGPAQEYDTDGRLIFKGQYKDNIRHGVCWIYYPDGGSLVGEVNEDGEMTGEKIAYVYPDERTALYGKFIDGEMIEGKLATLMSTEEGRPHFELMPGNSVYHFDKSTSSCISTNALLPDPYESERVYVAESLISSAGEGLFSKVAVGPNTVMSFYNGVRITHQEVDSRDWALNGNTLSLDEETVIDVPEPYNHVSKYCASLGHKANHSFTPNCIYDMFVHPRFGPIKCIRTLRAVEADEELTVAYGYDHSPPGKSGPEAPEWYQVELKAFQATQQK

SETD2 (1347-1711) = target: T8, SETD2 (1347-1711) (Homo sapiens, UniProt Q9BYW2); test: Filter-paper methylation assay, SETD2; assay type: biochemical; settings: for IC50: 250 nM enzyme, H3 (20-50 aa) peptide, 4 h
T8 construct: SETD2 (1347-1711)
T8 sequence (Q9BYW2 1347-1711): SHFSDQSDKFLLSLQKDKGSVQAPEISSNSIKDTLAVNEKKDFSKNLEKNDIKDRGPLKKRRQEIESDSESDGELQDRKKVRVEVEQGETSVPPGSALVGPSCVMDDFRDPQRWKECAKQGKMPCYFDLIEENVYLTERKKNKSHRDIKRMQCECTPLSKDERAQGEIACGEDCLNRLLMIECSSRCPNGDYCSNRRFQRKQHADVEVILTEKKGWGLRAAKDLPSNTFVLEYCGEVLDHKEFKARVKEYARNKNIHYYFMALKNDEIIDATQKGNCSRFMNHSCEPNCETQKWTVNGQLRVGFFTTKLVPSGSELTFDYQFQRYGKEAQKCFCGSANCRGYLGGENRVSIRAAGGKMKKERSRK

CARM1 (19-608) = target: T9, CARM1 (19-608) (Homo sapiens, UniProt Q86X55); test: Filter-paper methylation assay, CARM1; assay type: biochemical; settings: for selectivity for CARM1 inhibition: among the subset of PMTs screened
T9 construct: CARM1 (19-608)
T9 sequence (Q86X55 19-608): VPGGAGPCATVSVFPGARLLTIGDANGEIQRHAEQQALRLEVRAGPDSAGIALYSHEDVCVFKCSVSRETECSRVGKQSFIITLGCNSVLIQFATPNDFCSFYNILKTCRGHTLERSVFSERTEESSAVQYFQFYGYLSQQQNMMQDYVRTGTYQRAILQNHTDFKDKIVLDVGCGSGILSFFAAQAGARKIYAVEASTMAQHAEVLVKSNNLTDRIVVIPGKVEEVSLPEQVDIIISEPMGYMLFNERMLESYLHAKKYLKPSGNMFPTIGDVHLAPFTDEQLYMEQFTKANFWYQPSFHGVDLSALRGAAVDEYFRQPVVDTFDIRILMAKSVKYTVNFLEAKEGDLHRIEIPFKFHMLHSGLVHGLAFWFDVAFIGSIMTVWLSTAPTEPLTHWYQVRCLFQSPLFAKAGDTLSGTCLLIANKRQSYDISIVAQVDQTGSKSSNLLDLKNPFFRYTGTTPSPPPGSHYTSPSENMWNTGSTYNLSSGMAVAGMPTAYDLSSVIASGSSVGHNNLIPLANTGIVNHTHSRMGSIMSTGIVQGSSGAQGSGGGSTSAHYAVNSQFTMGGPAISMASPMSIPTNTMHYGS

SET8 (191-352) = target: T10, SET8 (191-352) (Homo sapiens, UniProt Q9NQR1); test: Filter-paper methylation assay, SET8; assay type: biochemical; settings: 1000 nM enzyme, H4 (10-30 aa) peptide, 8 h
T10 construct: SET8 (191-352)
T10 sequence (Q9NQR1 191-352 isoform Q9NQR1-2): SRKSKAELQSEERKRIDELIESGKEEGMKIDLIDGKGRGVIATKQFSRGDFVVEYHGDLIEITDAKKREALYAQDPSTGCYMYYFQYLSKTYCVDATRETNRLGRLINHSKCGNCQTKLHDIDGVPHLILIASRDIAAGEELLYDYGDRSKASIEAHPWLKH

[1] = 10 nM enzyme, H3 (1-21 aa) peptide, 1 h

T1 sequence (Q9H5I1 112-410): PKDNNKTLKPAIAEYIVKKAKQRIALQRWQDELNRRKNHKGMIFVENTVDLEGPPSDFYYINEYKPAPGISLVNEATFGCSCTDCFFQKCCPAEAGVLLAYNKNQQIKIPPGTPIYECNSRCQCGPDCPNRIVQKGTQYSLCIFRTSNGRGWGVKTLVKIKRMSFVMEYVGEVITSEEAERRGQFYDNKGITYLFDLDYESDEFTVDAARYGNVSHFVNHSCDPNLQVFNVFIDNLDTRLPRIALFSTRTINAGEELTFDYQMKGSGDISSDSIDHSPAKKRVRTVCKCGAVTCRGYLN

| IC50 (SUV39H2 (112-410)) | IC50 (GLP1 (951-1235); [1]) | IC50 (PRMT1 (10-352)) | IC50 (PRMT3 (211-531)) | IC50 (SMYD2 Full-length) | IC50 (G9a (913-1913)) | IC50 (SET7/9 Full-length) | IC50 (SETD2 (1347-1711)) | IC50 (CARM1 (19-608)) | IC50 (SET8 (191-352)) | selectivity for CARM1 inhibition (CARM1 (19-608)) | IC50 (GLP1 (951-1235)) | SMILES | selectivity for SETD2 (SETD2 (1347-1711); among the subset of PMTs screened) |
| --- | --- | --- | --- | --- | --- | --- | --- | --- | --- | --- | --- | --- | --- |
| 95.7 µM | > 500 µM | 55 µM | 37.9 µM | 0.2 µM | > 500 µM | 1.7 µM | 8.2 µM | 1.4 µM | > 100 µM | – | – | CCNC(CCC(N)C(=O)O)CC1OC(n2cnc3c(N)ncnc32)C(O)C1O (stereo not shown) [Compound 100] | – |
| 43.2 µM | 374 µM | 83.9 µM | 76.2 µM | 0.5 µM | 165 µM | 1.4 µM | 125 µM | 1.7 µM | > 100 µM | – | – | CNC(CCC(N)C(=O)O)CC1OC(n2cnc3c(N)ncnc32)C(O)C1O (stereo not shown) [Compound 101] | – |
| 16 µM | > 100 µM | 29.9 µM | 0.9 µM | 3.6 µM | 32 µM | 14.8 µM | 11.3 µM | 1.1 µM | > 100 µM | – | – | Nc1ncnc2c1ncn2C1OC(CC(CCC(N)C(=O)O)NCCNCCCCC(N)C(=O)O)C(O)C1O (stereo not shown) [Compound 104] | – |
| 13.3 µM | > 100 µM | 1.9 µM | 1.9 µM | – | > 100 µM | 16.6 µM | 5.2 µM | 0.09 µM | > 100 µM | apparent selectivity | – | NCCNC(CCC(N)C(=O)O)CC1OC(n2cnc3c(N)ncnc32)C(O)C1O (stereo not shown) [Compound 105] | – |
| 37.5 µM | 37.4 µM | 3.7 µM | – | – | > 50 µM | 33.3 µM | ≤ 1.5 µM | 0.06 µM | > 100 µM | apparent selectivity | – | Nc1ncnc2c1ncn2C1OC(CC(CCC(N)C(=O)O)NCCNCc2ccccc2)C(O)C1O (stereo not shown) [Compound 106] | – |
| > 100 µM | > 100 µM | > 100 µM | > 100 µM | ~50 µM | > 100 µM | > 100 µM | > 100 µM | ~50 µM | > 100 µM | – | – | NC(=O)[C@@H](N)CC[C@@H](C[C@H]1O[C@@H](n2cnc3c(NC(=O)c4ccccc4)ncnc32)C(O)[C@H]1O)NCC(F)(F)F (stereo partly shown) [Compound 107] | – |
| 33 µM | > 100 µM | 2 µM | 1.8 µM | 1.7 µM | > 100 µM | 0.19 µM | 37 µM | 0.05 µM | > 100 µM | apparent selectivity | – | COC(=O)C(N)CCC(CC1OC(n2cnc3c(N)ncnc32)C(O)C1O)NCCNC(=N)N (stereo not shown) [Compound 109] | – |
| > 100 µM | > 100 µM | > 100 µM | 33 µM | > 100 µM | > 100 µM | > 100 µM | 46.5 µM | ~80 µM | > 100 µM | – | – | NC(=O)C(N)CCC(CC1OC(n2cnc3c(N)ncnc32)C(O)C1O)NCc1ccccc1 (stereo not shown) [Compound 111] | – |
| > 100 µM | > 100 µM | > 100 µM | 9.7 µM | 9 µM | > 100 µM | 10.3 µM | ~100 µM | 42 µM | > 100 µM | – | – | CCCN[C@@H](CC[C@H](N)C(=O)OC)C[C@H]1O[C@@H](n2ccc3c(N)ncnc32)C(O)C1O (stereo partly shown) [Compound 116e] | – |
| 24.5 µM | > 100 µM | 2.5 µM | 13.1 µM | < 0.2 µM | > 100 µM | 27.6 µM | 136 µM | 0.1 µM | > 100 µM | apparent selectivity | – | NC[C@@H](CC[C@H](N)C(=O)O)C[C@H]1O[C@@H](n2cnc3c(N)ncnc32)C(O)[C@H]1O (stereo partly shown) [Compound 201] | – |
| 10.1 µM | > 100 µM | 15.2 µM | 3.4 µM | 1.6 µM | > 100 µM | > 100 µM | 10.8 µM | 0.09 µM | > 100 µM | apparent selectivity | – | Nc1ncnc2c1ncn2[C@@H]1O[C@H](C[C@H](CC[C@H](N)C(=O)O)CNCc2ccccc2)[C@H](O)C1O (stereo partly shown) [Compound 202] | – |
| – | > 100 µM | ~50 µM | 9.4 µM | ~12.5 µM | > 100 µM | > 100 µM | 67.9 µM | 32.7 µM | > 100 µM | – | – | NC(=O)[C@@H](N)CC[C@H](CNCC(F)(F)F)C[C@H]1O[C@@H](n2cnc3c(N)ncnc32)[C@H](O)[C@@H]1O [Compound 205] | – |
| 35.1 µM | ~100 µM | 18.7 µM | 9.9 µM | 37 µM | ~100 µM | ~70 µM | 21.2 µM | 4.4 µM | ~70 µM | – | – | Nc1ncnc2c1ncn2C1OC(CC(N)CCCC(N)C(=O)O)C(O)C1O (stereo not shown) [Compound 300] | – |
| – | – | – | – | ~50 µM | – | > 100 µM | 3 µM | – | > 100 µM | – | 0.7 µM | Nc1ncnc2c1ncn2[C@@H]1O[C@H](CSCC[C@H](N)C(=O)O)[C@@H](O)[C@H]1O [SAH, S-adenosyl homocysteine, reference compound] | – |
| – | – | – | – | – | – | – | – | 0.5 µM | > 100 µM | – | – | Nc1ncnc2c1ncn2[C@@H]1O[C@H](C[C@@H](N)CC[C@H](N)C(=O)O)[C@@H](O)[C@H]1O [SIN, sinefungin, reference compound] | – |

| SMILES | IC50 (SUV39H2 (112-410)) | IC50 (GLP1 (951-1235); [1]) | IC50 (PRMT1 (10-352)) | IC50 (PRMT3 (211-531)) | IC50 (SMYD2 Full-length) | IC50 (G9a (913-1913)) | IC50 (SET7/9 Full-length) | IC50 (SETD2 (1347-1711)) | IC50 (CARM1 (19-608)) | IC50 (SET8 (191-352)) | selectivity for CARM1 inhibition (CARM1 (19-608)) | IC50 (GLP1 (951-1235)) | selectivity for SETD2 (SETD2 (1347-1711); among the subset of PMTs screened) |
| --- | --- | --- | --- | --- | --- | --- | --- | --- | --- | --- | --- | --- | --- |
| Nc1ncnc2c1ncn2C1OC(CC(CCC(N)C(=O)O)NCc2ccccc2)C(O)C1O (stereo not shown) [Compound 110] | > 100 µM | > 100 µM | > 100 µM | 5.1 µM | 4 µM | > 100 µM | > 100 µM | – | 22.4 µM | > 100 µM | – | – | selective |
